Source: patent US20260034091A1, “Compositions and Methods for Treating Metabolic Disorders” (The Regents of the University of California, priority 2022, published 2026)

What was measured:
[1] = system: 60% kcal fat diet induced metabolic syndrome and early stage NAFLD in mice; experiment: Rescue effect of TOFA in 60% kcal fat diet induced early-stage hepatic steatosis and associated metabolic disorders; format: in vivo, C57BL/6 male mice
Protocol: Six-week-old C57BL/6 male mice were fed with a 60 kcal % fat diet (Research Diets A12492i) for seven weeks before introduction of either vehicle (control) or 250 mg/kg initial loading dose of TOFA daily via twice daily oral gavage for one week (FIG. 2A). Mice were then treated with either vehicle (control) or 125 mg/kg maintenance dose of TOFA daily via twice daily gavage for three additional weeks. Mice weights were tracked during the entire time course. After three weeks of treatment, an intraperitoneal glucose tolerance test (IP-GTT) and insulin tolerance test (IP-ITT) were performed. Prior to these tests, mice were fasted for six hours before a challenge of either 1 g/kg D-glucose or 0.75 U/kg HumulinR (Eli Lilly) and blood glucose levels were monitored for two hours (Bayer Contour Next). Venous fasting blood was collected through the tail vein and used to measure fasting insulin levels by commercially available ELISA kits (CrystalChem90080). Prior to harvest, mice underwent whole body composition analysis (EchoMRI™ 2012). Upon study termination at 11 weeks, serum and liver samples were collected. Serum liver damage biomarkers, ALT and AST, were measured by commercially available kits (abcam 105134 and abcam105135, respectively). Hepatic and serum triglyceride levels were measured from a commercially available kit (abcam65336).

[2] = system: CDAHFD-induced late stage NAFLD/NASH in mice; experiment: Benchmark study against Firsocostat and Fenofibrate in CDAHFD-induced late stage NAFLD/NASH; format: in vivo, C57BL/6J male mice; conditions: QD oral gavage four weeks
Protocol: Six-week-old C57BL/6J male mice were fed with a L-amino acid diet with 60 kcal % fat with 0.1% methionine and no added choline (CDAHFD; Research Diets A06071302i) for eight weeks. Mice were randomly assigned to treatment groups of either a vehicle (control), 250 mg/kg of TOFA, 5 mg/kg of Firsocostat (Gilead Sciences), 50 mg/kg of Fenofibrate, or a combined dose of 5 mg/kg Firsocostat and 50 mg/kg Fenofibrate. All treatments were delivered QD by oral gavage for an additional four weeks. Mice weights and food intake were monitored during the treatment time course. Upon study termination at 12 weeks, liver and serum samples were collected. Serum liver damage biomarkers, ALT and AST, were measured by commercially available kits (abcam 105134 and abcam 105135, respectively). Hepatic and serum triglyceride levels were measured from a commercially available kit (abcam65336). Total RNA was extracted from liver tissues (Qiagen RNeasy kit 74106), and cDNA was prepared (BioRAD iScript™ Reverse Transcription) according to manufacturer's protocols. Quantitative PCR (qPCR) was performed with fast SYBR Green Mix (ThermoFisher A25742) on the QuantStudio6 System (Applied Biosciences). Protein expression levels of liver samples were measured by western blot using antibodies against VLDLR (AF2258, 1:2000), CPT1A (CST12252, 1:1000) and Histone H3 (CST9715, 1:1000). Membranes were developed using a HRP secondary antibody (1:5000) and visualized using an enhanced chemiluminescent HRP substrate (Thermo34577). Additional liver samples were fixed in 4% paraformaldehyde and embedded in paraffin blocks for sectioning and subsequently stained with hematoxylin and eosin (H&E).

[3] = system: CDAHFD diet-induced NAFLD/NASH with PPARA KO; experiment: TOFA in genetic PPARA knockout mice, CDAHFD model of NAFLD/NASH; format: in vivo, PPARA knockout (PPARA KO) male mice
Protocol: Six-week-old genetic PPARA knockout (PPARA KO) male mice were fed with a L-amino acid diet with 60 kcal % fat with 0.1% methionine and no added choline (CDAHFD; Research Diets A06071302i) for three weeks or fed with a 60 kcal % fat diet (DIO; Research Diets A12492i) for eight weeks before introduction of either vehicle (control) or 125 mg/kg of TOFA, BID, via oral gavage for an additional two weeks (FIG. 11A and FIG. 11J, respectively). C57BL/6J (WT) mice were fed with the CDAHFD and underwent similar experimental conditions and time course. Mice weights and adverse events were monitored during the treatment time course. Upon study termination, serum and liver samples were collected. Serum liver damage biomarkers, ALT and AST, were measured by commercially available kits (abcam105134 and abcam 105135, respectively). Hepatic and serum triglyceride levels were measured from a commercially available kit (abcam65336). Total RNA was extracted from liver tissues (Qiagen RNeasy kit 74106), and cDNA was prepared (BioRAD iScript™M Reverse Transcription) according to manufacturer's protocols. Quantitative PCR (qPCR) was performed with fast SYBR Green Mix (ThermoFisher A25742) on the QuantStudio6 System (Applied Biosciences). Protein expression levels of liver samples were measured by western blot using antibodies against ACC1/2 (CST3662, 1:1000), VLDLR (AF2258, 1:2000), CPT1A (CST12252, 1:1000), PPARA (abcam126285, 1:1000) and beta-tubulin (CST2146, 1:1000). Membranes were developed using a HRP secondary antibody (1:5000) and visualized using an enhanced chemiluminescent HRP substrate (Thermo34577). Additional liver samples were fixed in 4% paraformaldehyde and embedded in paraffin blocks for sectioning and subsequently stained with hematoxylin and eosin (H&E). Frozen fresh liver tissue was embedded in OCT, sectioned, and subsequently stained with Oil Red O.

[4] = 250 mg/kg daily 1 week then 125 mg/kg daily 3 weeks, twice daily oral gavage

CCCCCCCCCCCCCCOc1ccc(C(=O)O)o1 [TOFA, 5-(Tetradecyloxy)-2-furoic acid] was tested, and the body weight [1, 4] was “weight loss compared to the vehicle control treated mice”, the “fat mass relative to whole body weight (EchoMRI)” value [1, 4] was “significant reduction of fat mass” and the food intake [1, 4] was “without impacting food intake”. For the same compound, the “lean mass relative to whole body weight (EchoMRI)” value [1, 4] was “increase in lean mass”, the “fasting blood glucose levels” value ([1]; after three weeks of treatment, 6 h fast) was “vast improvements” and the “insulin tolerance test (IP-ITT)” value ([1]; after three weeks of treatment, 6 h fast, 0.75 U/kg HumulinR) was “improved insulin sensitivity”. The “intraperitoneal glucose tolerance test (IP-GTT)” value ([1]; after three weeks of treatment, 6 h fast, 1 g/kg D-glucose) was “more glucose tolerant”, the fasting insulin levels ([1]; after three weeks of treatment, ELISA) was “significantly lower” and the “hepatic levels of triglycerides” value ([1]; study termination at 11 weeks) was “significantly reduced”. For the same compound, the “serum ALT” value ([1]; study termination at 11 weeks) was “no significant changes”, the “serum AST” value ([1]; study termination at 11 weeks) was “no significant changes” and the “serum levels of triglycerides” value ([1]; study termination at 11 weeks) was “significantly reduced”. The food intake [2] was “not attributed to changes in food intake”, the liver damage ([2]; TOFA 250 mg/kg) was “largely decreased liver damage relative to vehicle control treatment at comparable, or stronger, degrees than Firsocostat, Fenofibrate, or the combination of the two agents” and the liver triglyceride levels ([2]; TOFA 250 mg/kg) was “strong decrease in liver triglyceride levels relative to Firsocostat treatments and vehicle control treatment”. For the same compound, the body weight ([2]; TOFA 250 mg/kg, Firsocostat 5 mg/kg, Fenofibrate 50 mg/kg) was “significant weight loss”, the “PPARA downstream targets Vldlr and Cpt1a (RT-qPCR)” value ([2]; liver mRNA) was “unique increase” and the “genes involved in inflammation (Il1b, Il6) and collagen synthesis (Col1a1, Col3a) by RT-qPCR” value ([2]; liver mRNA) was “specific, comparable response”. The “protein expression levels of VLDLR and CPT1A (western blot)” value ([2]; liver samples) was “increased protein expression levels of VLDLR and CPT1A to higher degrees than the other treatment regimens”, the “steatosis (H&E staining)” value ([2]; liver sections) was “decreased levels of steatosis” and the body weight ([3]; 125 mg/kg BID oral gavage, two weeks) was “trending decrease in weight”. The “Cpt1a mRNA (RT-qPCR)” value ([3]; 125 mg/kg BID, two weeks) was “blunted”, the “hepatic steatosis (H&E)” value ([3]; 125 mg/kg BID, two weeks) was “minimal decreases in hepatic steatosis” and the “lipid content by Oil Red O” value ([3]; 125 mg/kg BID, two weeks) was “minimal changes in lipid content”. For the same compound, the “liver triglyceride (hepatic lipid levels)” value ([3]; 125 mg/kg BID, two weeks) was “no notable decrease”, the “serum ALT levels” value ([3]; 125 mg/kg BID, two weeks) was “marginal decreases” and the “serum AST levels” value ([3]; 125 mg/kg BID, two weeks) was “marginal decreases”. The “protein expression levels of CPT1A, VLDLR, and ACC1 (western blot)” value ([3]; relative to vehicle control) was “not observed”.
